# Test results: PubChem BioAssay (NCI)
#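 Interpolation was linear, between the two tested concentrations surrounding the appropriate level; five concentrations were tested over 48 hours in 96-well plates. TGI: total growth inhibition.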
# How the values were obtained:
# Assay in all cases: inhibition of tumour cell growth, NCI panel, 48 h
# KM12 colon = system: KM12 colon
# T-47D breast = system: T-47D breast
# SN12C renal = system: SN12C renal
# RXF 393 renal = system: RXF 393 renal
# TK-10 renal = system: TK-10 renal
# SF-295 CNS = system: SF-295 CNS
# LOX IMVI melanoma = system: LOX IMVI melanoma
# NCI/ADR-RES ovarian = system: NCI/ADR-RES ovarian
# PC-3 prostate = system: PC-3 prostate
# A549 NSCLC = system: A549 NSCLC
# NCI-H460 lung = system: NCI-H460 lung
# NCI-H226 lung = system: NCI-H226 lung
# HOP-62 NSCLC = system: HOP-62 NSCLC
# UO-31 renal = system: UO-31 renal
# RPMI-8226 leukemia = system: RPMI-8226 leukemia
# MOLT-4 leukemia = system: MOLT-4 leukemia
# EKVX NSCLC = system: EKVX NSCLC
# MDA-N = system: MDA-N
# DU-145 prostate = system: DU-145 prostate
# SK-OV-3 ovarian = system: SK-OV-3 ovarian
# 786-0 renal = system: 786-0 renal
# SF-539 CNS = system: SF-539 CNS
# UACC-62 melanoma = system: UACC-62 melanoma
# U251 CNS = system: U251 CNS
# OVCAR-3 ovarian = system: OVCAR-3 ovarian
# HT29 colon = system: HT29 colon
# HCT-15 colon = system: HCT-15 colon
# BT-549 breast = system: BT-549 breast
# CCRF-CEM leukemia = system: CCRF-CEM leukemia
# K-562 leukemia = system: K-562 leukemia
# SK-MEL-5 melanoma = system: SK-MEL-5 melanoma
# SW-620 colon = system: SW-620 colon
# COLO 205 colon = system: COLO 205 colon
# IGROV1 ovarian = system: IGROV1 ovarian
# MALME-3M melanoma = system: MALME-3M melanoma
# SK-MEL-2 melanoma = system: SK-MEL-2 melanoma
# SNB-19 CNS = system: SNB-19 CNS
# SR leukemia = system: SR leukemia
# OVCAR-4 ovarian = system: OVCAR-4 ovarian
# OVCAR-5 ovarian = system: OVCAR-5 ovarian
# MDA-MB-435 = system: MDA-MB-435
# HCT-116 colon = system: HCT-116 colon
# M14 melanoma = system: M14 melanoma
# SK-MEL-28 melanoma = system: SK-MEL-28 melanoma
# CAKI-1 renal = system: CAKI-1 renal
# HS 578T breast = system: HS 578T breast
# HL-60(TB) leukemia = system: HL-60(TB) leukemia
# UACC-257 melanoma = system: UACC-257 melanoma
# MCF7 breast = system: MCF7 breast
# SNB-75 CNS = system: SNB-75 CNS
# OVCAR-8 ovarian = system: OVCAR-8 ovarian
# SF-268 CNS = system: SF-268 CNS
# NCI-H522 lung = system: NCI-H522 lung
# A498 renal = system: A498 renal
# MDA-MB-231 breast = system: MDA-MB-231 breast
# NCI-H23 lung = system: NCI-H23 lung
# ACHN renal = system: ACHN renal
# HOP-92 NSCLC = system: HOP-92 NSCLC
# HCC-2998 colon = system: HCC-2998 colon
smiles,measurement,setting,value
Cc1cc(C)nc(NC(=S)Nc2ccccc2Cl)c1,TGI,KM12 colon,> 100 µM
same,TGI,T-47D breast,> 100 µM
same,TGI,SN12C renal,> 100 µM
same,TGI,RXF 393 renal,> 100 µM
same,TGI,TK-10 renal,> 100 µM
same,TGI,SF-295 CNS,> 100 µM
same,TGI,LOX IMVI melanoma,> 100 µM
same,TGI,NCI/ADR-RES ovarian,> 100 µM
same,TGI,PC-3 prostate,> 100 µM
same,TGI,A549 NSCLC,> 100 µM
same,TGI,NCI-H460 lung,> 100 µM
same,TGI,NCI-H226 lung,> 100 µM
same,TGI,HOP-62 NSCLC,> 100 µM
same,TGI,UO-31 renal,> 100 µM
same,TGI,RPMI-8226 leukemia,> 100 µM
same,TGI,MOLT-4 leukemia,> 100 µM
same,TGI,EKVX NSCLC,> 100 µM
same,TGI,MDA-N,> 100 µM
same,TGI,DU-145 prostate,> 100 µM
same,TGI,SK-OV-3 ovarian,> 100 µM
same,TGI,786-0 renal,> 100 µM
same,TGI,SF-539 CNS,> 100 µM
same,TGI,UACC-62 melanoma,> 100 µM
same,TGI,U251 CNS,> 100 µM
same,TGI,OVCAR-3 ovarian,> 100 µM
same,TGI,HT29 colon,> 100 µM
same,TGI,HCT-15 colon,> 100 µM
same,TGI,BT-549 breast,> 100 µM
same,TGI,CCRF-CEM leukemia,> 100 µM
same,TGI,K-562 leukemia,> 100 µM
same,TGI,SK-MEL-5 melanoma,> 100 µM
same,TGI,SW-620 colon,> 100 µM
same,TGI,COLO 205 colon,> 100 µM
same,TGI,IGROV1 ovarian,> 100 µM
same,TGI,MALME-3M melanoma,> 100 µM
same,TGI,SK-MEL-2 melanoma,> 100 µM
same,TGI,SNB-19 CNS,> 100 µM
same,TGI,SR leukemia,> 100 µM
same,TGI,OVCAR-4 ovarian,> 100 µM
same,TGI,OVCAR-5 ovarian,> 100 µM
same,TGI,MDA-MB-435,> 100 µM
same,TGI,HCT-116 colon,> 100 µM
same,TGI,M14 melanoma,> 100 µM
same,TGI,SK-MEL-28 melanoma,> 100 µM
same,TGI,CAKI-1 renal,> 100 µM
same,TGI,HS 578T breast,> 100 µM
same,TGI,HL-60(TB) leukemia,> 100 µM
same,TGI,UACC-257 melanoma,> 100 µM
same,TGI,MCF7 breast,> 100 µM
same,TGI,SNB-75 CNS,> 100 µM
same,TGI,OVCAR-8 ovarian,> 100 µM
same,TGI,SF-268 CNS,> 100 µM
same,TGI,NCI-H522 lung,> 100 µM
same,TGI,A498 renal,> 100 µM
CCOP(=O)(OCC)/C(C#N)=C/c1ccc(-c2ccc(F)cc2F)o1,TGI,KM12 colon,31.6 µM
same,TGI,T-47D breast,8.35 µM
same,TGI,SN12C renal,29.7 µM
same,TGI,RXF 393 renal,> 100 µM
same,TGI,TK-10 renal,25.5 µM
same,TGI,SF-295 CNS,30.8 µM
same,TGI,LOX IMVI melanoma,32.9 µM
same,TGI,NCI/ADR-RES ovarian,58.9 µM
same,TGI,PC-3 prostate,24.2 µM
same,TGI,A549 NSCLC,30.2 µM
same,TGI,MDA-MB-231 breast,36.6 µM
same,TGI,NCI-H460 lung,44.2 µM
same,TGI,NCI-H226 lung,36 µM
same,TGI,HOP-62 NSCLC,33.8 µM
same,TGI,UO-31 renal,26.3 µM
same,TGI,RPMI-8226 leukemia,51.9 µM
same,TGI,NCI-H23 lung,33.6 µM
same,TGI,MOLT-4 leukemia,28.4 µM
same,TGI,EKVX NSCLC,31 µM
same,TGI,MDA-N,48.7 µM
same,TGI,DU-145 prostate,42.5 µM
same,TGI,SK-OV-3 ovarian,26.9 µM
same,TGI,786-0 renal,27.4 µM
same,TGI,SF-539 CNS,35.8 µM
same,TGI,UACC-62 melanoma,23.4 µM
same,TGI,U251 CNS,32.6 µM
same,TGI,OVCAR-3 ovarian,30.1 µM
same,TGI,HT29 colon,33.1 µM
same,TGI,ACHN renal,26.6 µM
same,TGI,HCT-15 colon,28.7 µM
same,TGI,BT-549 breast,24.5 µM
same,TGI,CCRF-CEM leukemia,38.7 µM
same,TGI,K-562 leukemia,38.1 µM
same,TGI,SK-MEL-5 melanoma,35.7 µM
same,TGI,SW-620 colon,38.5 µM
same,TGI,COLO 205 colon,30.7 µM
same,TGI,IGROV1 ovarian,34.6 µM
same,TGI,MALME-3M melanoma,33.4 µM
same,TGI,HOP-92 NSCLC,35.7 µM
same,TGI,SK-MEL-2 melanoma,44 µM
same,TGI,SNB-19 CNS,33.3 µM
same,TGI,SR leukemia,33.2 µM
same,TGI,OVCAR-4 ovarian,33.4 µM
same,TGI,OVCAR-5 ovarian,31.7 µM
same,TGI,MDA-MB-435,27 µM
same,TGI,HCT-116 colon,32.3 µM
same,TGI,M14 melanoma,31.7 µM
same,TGI,SK-MEL-28 melanoma,28.1 µM
same,TGI,CAKI-1 renal,28.6 µM
same,TGI,HCC-2998 colon,27.6 µM
same,TGI,HL-60(TB) leukemia,34.9 µM
same,TGI,UACC-257 melanoma,26.8 µM
same,TGI,MCF7 breast,43 µM
same,TGI,SNB-75 CNS,61.3 µM
same,TGI,OVCAR-8 ovarian,33.2 µM
same,TGI,SF-268 CNS,44.3 µM
same,TGI,NCI-H522 lung,37 µM
same,TGI,A498 renal,28.8 µM
